Here are results for three compounds from ChEMBL document CHEMBL2074174, “Directional trans-epithelial transport of organic anions in porcine LLC-PK1 cells that co-express human OATP1B1 (OATP-C) and MRP2” (Biochem Pharmacol, 2005).

In this series the target is Canalicular multispecific organic anion transporter 1/Solute carrier organic anion transporter family member 1B1 (Homo sapiens, UniProt Q92887+Q9Y6L6). Nature of the series: TP_TRANSPORTER: Transepithelial Transport (basal to apical) in OATP1B1/MRP2 double transfected LLC-PK1 cell. The class given is functional, cell-based. The note with it: pig.

For the compound `C[C@]12CC[C@@H]3c4ccc(O)cc4CC[C@H]3[C@@H]1CC[C@@H]2O[C@@H]1O[C@H](C(=O)O)[C@@H](O)[C@H](O)[C@H]1O` [ESTRADIOL 17B GLUCURONIDE], the Activity entry was “substrate [(+)]”. Take `C[C@]12CC[C@@H]3c4ccc(OS(=O)(=O)O)cc4CC[C@H]3[C@@H]1CCC2=O` [ESTRONE SULFURIC ACID]: the Activity entry was “substrate [(+)]”. In the case of `C[C@]12CC[C@H](OS(=O)(=O)O)CC1=CC[C@@H]1[C@@H]2CC[C@]2(C)C(=O)CC[C@@H]12` [PRASTERONE SULFURIC ACID] it was “substrate [(+)]”.
